Assay results taken from patent US20220041578A1, “ISOINDOLINE COMPOUND, AND PREPARATION METHOD, PHARMACEUTICAL COMPOSITION, AND APPLICATION OF ISOINDOLINE COMPOUND” (Shanghai Institute of Meteria Medica, Chinese Academy of …, priority 2018, published 2022).

What was measured:
Assay type in all cases: cell-based
[1] = test system: prostate cancer cells DU145; assay: Proliferation of other tumor cells, DU145 (WST-8); conditions: Homo sapiens, DU-145, 96 h, 4 days, read-out: Inhibitory activity on proliferation, DU145 (IC50)
Description: (§1) The human triple negative breast cancer cells MDA-MB-468 and MDA-MB-231 used in this experiment were purchased from the Shanghai Cell Bank, in which L-15 medium added with 10% fetal bovine serum (FBS) and 1% double antibody was used. At 37° C., MDA-MB-468 and MDA-MB-231 cells were cultured in an incubator without CO2. Colorectal cancer cells HCT-116 were cultured in McCOY's 5A medium with 1% double antibody and 10% fetal bovine serum (FBS); prostate cancer cells DU145 were cultured in MEM medium with 1% double antibody and 10% fetal bovine serum (FBS); prostate cancer cells PC-3 were cultured in F-12 K medium with 1% double antibody and 10% fetal bovine serum (FBS); grew at 37° C., 5% CO2.
(§2) In the cell activity test experiment, 90 μL cell suspension with appropriate concentration was added to a 96-well cell culture plate according to the cell growth, each compound to be tested was gradient diluted with the corresponding medium, 10 μL diluted compound was added to 90 μL cells, and then incubated at 37° C. for 4 days. Cell proliferation was analyzed by WST-8, which could be reduced by lactate dehydrogenase in the cells to a yellow formazan. 10 μL of WST-8 reagent (DOJINDO) was added to the cells and reacted for more than 1 hour at 37° C., DMSO-treated cells were used as […]. The absorption value of 490 nm was read by enzyme-labeled plate, and the absorption value of 690 nm was taken as the background value, and OD490-OD690 was taken as the final original data, and the data was processed by GraphPad Prism6 software. The formula for calculating the inhibition rate of the compound was: inhibition rate=(ODDMSO−ODcompound)/(ODDMSO−Oblank)×100%. The compound's proliferation inhibition IC50 was fitted by Graph Pad Prism 5.0. The experiment was repeated three times, and three parallel experiments were used to calculate the average and standard deviation each time. The cell viability test results were shown in Table 4: A means cell viability IC50<1 μM, B means cell viability 1 μM≤IC50≤20 μM, C means cell viability IC50>20 μM, NT means not tested.

[2] = test system: Colorectal cancer cells HCT-116; assay: Proliferation of other tumor cells, HCT-116 (WST-8); conditions: Homo sapiens, 96 h, HCT-116 cells, 4 days, read-out: Inhibitory activity on proliferation, HCT-116 (IC50)
Description: as §1, §2

MM.1S cells = assay: Effect of the compound on the proliferation of MM.1S cells (MTS); conditions: Homo sapiens, MM1.S, 168 h, 7 days, read-out: Cell inhibitory activity (IC50)
Method in brief: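 In 1640 medium + 10% FBS, 20,000 cells per well were treated with 5-fold compound dilutions at 0.2% DMSO for 7 days at 37° C., 5% CO2. MTS was read after 3–4 h as OD490−OD690, inhibition was calculated against DMSO and blank wells, and IC50 was fitted; three independent experiments were run.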

Mino cells = assay: Effect of the compound on the proliferation of Mino cells (MTS); conditions: Homo sapiens, 72 h, 3 days, read-out: Inhibitory activity (IC50)
Method in brief: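 Mino cells, 8000/well, treated 3 days at 37 °C/5% CO2 with 5-fold compound dilutions from 10 mM stock (0.2% DMSO final). MTS added for 3-4 h; OD490 minus OD690 read, inhibition relative to DMSO and blank, IC50 fitted. Three repeats, each in triplicate.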

[3] = test system: triple negative breast cancer cells MDA-MB-231; assay: Proliferation of other tumor cells, MDA-MB-231 (WST-8); conditions: Homo sapiens, 96 h, MDA-MB-231 cells, 4 days, read-out: Inhibitory activity on proliferation, MDA-MB-231 (IC50)
Description: as §1, §2

IFNγ = IFNγ expression change in anti-human CD3 stimulated PBMC (ELISA); conditions: compound 10 nM, anti-human CD3 10 ug/ml, 24 hours
Description: All operations of this experiment were carried out according to the conventional experimental process of this kind of experiment at present. Peripheral blood from healthy volunteers was collected by routine standard procedure and cultured in 1640 medium (+10% FBS) to obtain PBMC. After recovery, PBMC was centrifuged and resuspended in serum-free medium. After counting, adjusted the density to be 6.25×10^5/ml; then inoculated 160 ul to a 96-well plate, 2 holes each, 1×10^5/well; 20 ul 10× compound and DMSO were added, and incubated for 1 hour in an incubator; then 20 ul 10× anti-human CD3 was added resulting the final concentration of 10 ug/ml and incubated in an incubator for 24 hours. Centrifuged the cell plate at 1500 rpm and aspirated 50 ul supernatant according to the ELISA operation. After operating according to the kit, a microplate reader was used to read at 450 nm. The concentration of compound was 10 nM, and DMSO was added as control group. Materials used in this experiment: 96 well plate (Corning, #3599), ELISA kit (Thermo), LPS (Sigma, USA). It was found from the test results of the following table that the compounds of the examples of the present invention could be used to regulate the expression of IFNγ.

[4] = test system: prostate cancer cells PC-3; assay: Proliferation of other tumor cells, PC-3 (WST-8); conditions: Homo sapiens, 96 h, PC-3 cells, 4 days, read-out: Inhibitory activity on proliferation, PC-3 (IC50)
Description: as §1, §2

SMILES: Nc1cccc2c1CN(C1CCC(=O)NC1=O)C2=O (stereo not shown) [Lenalidomide, lenalidomide, reference compound]
- IC50 [1]: > 20 µM
- IC50 [2]: > 20 µM
- IC50 (MM.1S cells): < 0.15 µM
- IC50 (Mino cells): > 20 µM
- IC50 [3]: > 20 µM
- Increase multiple of IFNγ expression (IFNγ): >1.5
- IC50 [4]: > 20 µM
